Experimental data as given in patent US10870647B2, “Imidazopyridine derivative, method for preparing same, and pharmaceutical composition containing same as active ingredient for preventing or treating cancer” (DAEGU-GYEONGBUK MEDICAL INNOVATION FOUNDATION, priority 2016, dated 2020).

Experiments:
MDA-MB-231 = experiment: Real time cell proliferation, IncuCyte ZOOM, 72 hours; assay type: cell-based; conditions: Homo sapiens, MDA-MB-231, 72 h
M-NFS-60 = experiment: Cancer cell proliferation inhibition, CCK-8, 72 hours; assay type: cell-based
In short: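 Cells were grown in RPMI with 10% FBS, 0.05 mM 2-mercaptoethanol and human M-CSF, and seeded at 20000 cells/well. Compounds were added from a 3-fold DMSO dilution series topping at 1968 nM (dilution-plate concentration; 11 points including DMSO control). After 72 h at 37 °C, CCK-8 was added for 2 h and OD450 read.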

FGFR4 = molecular target: T1, FGFR4 (Homo sapiens, UniProt P22455); experiment: Enzyme inhibitory activity (Kd), Reaction Biology Co.; assay type: binding
T1 construct: purchased Reaction Biology Co
T1 sequence (P22455 22-802): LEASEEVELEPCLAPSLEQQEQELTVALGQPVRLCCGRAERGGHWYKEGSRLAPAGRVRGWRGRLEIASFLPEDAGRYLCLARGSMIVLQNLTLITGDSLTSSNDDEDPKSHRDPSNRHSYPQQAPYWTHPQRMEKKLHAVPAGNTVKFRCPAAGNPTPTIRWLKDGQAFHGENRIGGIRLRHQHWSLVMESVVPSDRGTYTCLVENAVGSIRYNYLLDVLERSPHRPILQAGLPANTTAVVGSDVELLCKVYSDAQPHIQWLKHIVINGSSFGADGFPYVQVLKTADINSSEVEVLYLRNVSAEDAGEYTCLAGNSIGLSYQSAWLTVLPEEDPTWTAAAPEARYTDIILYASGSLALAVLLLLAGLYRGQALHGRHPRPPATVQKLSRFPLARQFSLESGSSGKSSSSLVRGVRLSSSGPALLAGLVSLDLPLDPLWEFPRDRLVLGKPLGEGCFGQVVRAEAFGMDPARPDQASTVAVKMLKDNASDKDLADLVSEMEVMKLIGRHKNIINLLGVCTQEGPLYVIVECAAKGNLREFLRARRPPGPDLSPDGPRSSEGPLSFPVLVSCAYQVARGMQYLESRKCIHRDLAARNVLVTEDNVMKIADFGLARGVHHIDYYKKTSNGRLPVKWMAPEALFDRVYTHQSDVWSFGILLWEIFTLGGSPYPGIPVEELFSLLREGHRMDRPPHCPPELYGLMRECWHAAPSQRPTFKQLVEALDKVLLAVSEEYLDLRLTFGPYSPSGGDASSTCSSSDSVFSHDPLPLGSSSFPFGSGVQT

RET = molecular target: T2, RET (Homo sapiens, UniProt P07949); experiment: as above; assay type: binding
T2 construct: purchased Reaction Biology Co
T2 sequence (P07949 29-1114): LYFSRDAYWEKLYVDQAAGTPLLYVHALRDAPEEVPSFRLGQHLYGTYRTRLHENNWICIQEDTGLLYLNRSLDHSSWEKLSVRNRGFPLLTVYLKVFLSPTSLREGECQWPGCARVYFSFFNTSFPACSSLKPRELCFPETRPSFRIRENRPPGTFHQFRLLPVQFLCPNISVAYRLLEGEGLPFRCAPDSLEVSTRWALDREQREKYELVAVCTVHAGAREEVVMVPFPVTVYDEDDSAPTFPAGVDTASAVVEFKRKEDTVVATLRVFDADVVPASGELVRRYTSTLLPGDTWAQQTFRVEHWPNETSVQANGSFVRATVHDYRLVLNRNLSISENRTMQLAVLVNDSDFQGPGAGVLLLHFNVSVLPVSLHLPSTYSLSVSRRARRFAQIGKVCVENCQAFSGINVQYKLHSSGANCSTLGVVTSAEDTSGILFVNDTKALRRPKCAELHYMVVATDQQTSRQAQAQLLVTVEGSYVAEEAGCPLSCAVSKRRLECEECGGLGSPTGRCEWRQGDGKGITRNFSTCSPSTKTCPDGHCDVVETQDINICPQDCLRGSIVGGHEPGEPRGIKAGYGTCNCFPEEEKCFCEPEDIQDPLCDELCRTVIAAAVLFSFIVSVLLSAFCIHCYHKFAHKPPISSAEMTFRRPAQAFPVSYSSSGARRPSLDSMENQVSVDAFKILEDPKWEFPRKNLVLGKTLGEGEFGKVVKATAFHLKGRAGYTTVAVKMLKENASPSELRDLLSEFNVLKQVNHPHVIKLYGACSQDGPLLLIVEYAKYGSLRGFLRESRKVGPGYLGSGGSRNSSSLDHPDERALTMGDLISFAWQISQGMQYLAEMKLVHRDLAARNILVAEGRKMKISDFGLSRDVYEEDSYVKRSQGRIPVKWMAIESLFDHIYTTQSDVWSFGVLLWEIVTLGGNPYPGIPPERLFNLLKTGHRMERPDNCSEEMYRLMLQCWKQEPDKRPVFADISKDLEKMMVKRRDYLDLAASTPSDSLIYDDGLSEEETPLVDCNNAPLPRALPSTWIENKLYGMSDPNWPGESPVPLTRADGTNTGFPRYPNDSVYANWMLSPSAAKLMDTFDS

RET(V804M) = molecular target: T3, RET(V804M) (Homo sapiens, UniProt P07949, V804M); experiment: as above; assay type: binding
T3 construct: purchased Reaction Biology Co
T3 sequence (P07949 29-1114 V804M): as the sequence (P07949 29-1114) above, with V776M counted along it

FYN (MCP-1) = experiment: Cancer cell proliferation inhibition, MTS assay, 72 hours; assay type: cell-based
In short: (§1)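 3,000 cells/well, 24 h pre-culture (37° C, 5% CO2); serial dilution of compound, top 50 μM, DMSO 0.05% v/v; 72 h exposure; MTS/PMS 2 h, OD450. IC50 = concentration giving 50% inhibition relative to DMSO control, n = 3 data sets.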

RET (LC2/ad-CDC6) = experiment: as above; assay type: cell-based; conditions: 72 h
In short: as §1

GIST430/654 = experiment: Cancer cell proliferation inhibition, cell viability after 72 hours; assay type: cell-based; conditions: GIST-430/654, imatinib-resistant
In short: (§2)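 GIST-T1/816, GIST-430 and GIST-430/654 seeded at 2×10^4/100 μl; GIST-R3 (patient-derived, imatinib/sunitinib-resistant) likewise. Compounds added next day at 8 concentrations; viability after 72 hours by EZ-cytox or CellTiter-Glo, as % of vehicle-treated cells, IC50 from curves; two independent experiments.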

GIST430 = experiment: as above; assay type: cell-based; conditions: Homo sapiens, imatinib-sensitive
In short: as §2

GIST-T1/816 = experiment: as above; assay type: cell-based; conditions: Homo sapiens, GISTT1, imatinib-resistant
In short: as §2

GIST-T1 = experiment: as above; assay type: cell-based; conditions: Homo sapiens, GISTT1, imatinib-sensitive

Cc1ccc(C(=O)Nc2ccc(CN3CCN(C)CC3)c(C(F)(F)F)c2)cc1C#Cc1cnc2c(Nc3cnn(C)c3)cccn12 [Example 1, 4-methyl-3-((8-((1-methyl-1H-pyrazol-4-yl)amino)imidazo[1,2-a]pyridin-3-yl)ethynyl)-N-(4-((4-methylpiperazin-1-yl)methyl)-3-(trifluoromethyl)phenyl)benzamide]
IC50 (MDA-MB-231): 187 nM
IC50 (M-NFS-60): 64.6 nM
Kd (FGFR4): 56 nM
Kd (RET): 10 nM
Kd (RET(V804M)): 11 nM
IC50 (FYN (MCP-1)): 730 nM
IC50 (RET (LC2/ad-CDC6)): < 10 nM
IC50 (GIST430/654): 332 nM
IC50 (GIST430): 36.8 nM
IC50 (GIST-T1/816): 35.4 nM
IC50 (GIST-T1): 1.9 nM

CCN1CCN(Cc2ccc(NC(=O)c3ccc(C)c(C#Cc4cnc5c(Nc6cnn(C)c6)cccn45)c3)cc2C(F)(F)F)CC1 [Example 8, N-(4-((4-ethylpiperazin-1-yl)methyl)-3-(trifluoromethyl)phenyl)-4-methyl-3-((8-((1-methyl-1H-pyrazol-4-yl)amino)imidazo[1,2-a]pyridin-3-yl)ethynyl)benzamide]
IC50 (MDA-MB-231): 96 nM
IC50 (M-NFS-60): 34.1 nM
Kd (FGFR4): 57 nM
Kd (RET): 7.5 nM
Kd (RET(V804M)): 9.1 nM
IC50 (FYN (MCP-1)): < 1000 nM

Cc1ccc(C(=O)Nc2cccc(C(F)(F)F)c2)cc1C#Cc1cnc2c(Nc3cnn(C4CCNCC4)c3)cccn12 [Example 11, 4-methyl-3-((8-((1-(piperidin-4-yl)-1H-pyrazol-4-yl)amino)imidazo[1,2-a]pyridin-3-yl)ethynyl)-N-(3-(trifluoromethyl)phenyl)benzamide]
IC50 (MDA-MB-231): 679 nM
IC50 (M-NFS-60): 30.8 nM
IC50 (FYN (MCP-1)): < 100 nM
IC50 (GIST430/654): 560 nM
IC50 (GIST430): 63.6 nM
IC50 (GIST-T1/816): 40.7 nM
IC50 (GIST-T1): 0.8 nM

Cc1cn(-c2cc(NC(=O)c3ccc(C)c(C#Cc4cnc5c(Nc6cnn(C)c6)cccn45)c3)cc(C(F)(F)F)c2)cn1 [Example 12, 4-methyl-N-(3-(4-methyl-1H-imidazol-1-yl)-5-(trifluoromethyl)phenyl)-3-((8-((1-methyl-1H-pyrazol-4-yl)amino)imidazo[1,2-a]pyridin-3-yl)ethynyl)benzamide]
IC50 (MDA-MB-231): 1190 nM
IC50 (M-NFS-60): 247 nM
Kd (FGFR4): 370 nM
Kd (RET): 25 nM
Kd (RET(V804M)): 32 nM
IC50 (FYN (MCP-1)): < 100 nM
IC50 (RET (LC2/ad-CDC6)): < 100 nM
IC50 (GIST430/654): 564 nM
IC50 (GIST430): 56.3 nM
IC50 (GIST-T1/816): 308 nM
IC50 (GIST-T1): 12.3 nM

Cc1ccc(NC(=O)C2(C(=O)Nc3ccc(F)cc3)CC2)cc1C#Cc1cnc2c(Nc3cnn(C(C)C)c3)cccn12 [Example 78]
IC50 (MDA-MB-231): 8780 nM
IC50 (M-NFS-60): 672 nM
IC50 (RET (LC2/ad-CDC6)): < 10000 nM
